# System: human HSC line LX-2
# Assay: TGFβ1-inducible collagen I and TGFβ expression in LX-2
# Type: cell-based
# Details: LX-2 treated with TGFβ1; FIGS. 2c, 2d
# Procedure: A human HSC line (LX-2, Milipore, U.S.A.) was plated in a 6-well plate, and grown to confluency in DMEM supplemented with 1% penicillin-streptomycin (Hyclone, U.S.A.) and 2% fetal bovine serum (Hyclone, U.S.A.) at 37° C. in a 5% CO2 incubator. For a further experiment, the confluent HSC line was incubated in an FBS-free medium, instead of the 2% FBS-added medium.
# Total RNA ([…]) extracted from cells using Trizol and a Maxime RT PreMix Kit (iNtRON Biotechnology, Gyeonggi-do, Korea) was used to obtain cDNA. For RT-PCR, a target gene was amplified by PCR using a Maxime™ PCR PreMix Kit according to the manufacturer's instructions, and subjected to electrophoresis in a 2% agrose gel, thereby identifying the amplified PCR product.
# Meanwhile, for real-time RT-qPCR, the synthesized cDNA was assessed in a CFX Connect™ Real-Time PCR Detection System (Bio-Rad Laboratories, CA, USA) instrument using a SYBR green dye (Bio-Rad). The CP value of the gene was calibrated with the CP value of S 18r gene. Also, through a melting curve analysis, specificity of the amplified PCR product was confirmed.
# Sodium dodecylsulfate-polyacrylamide gel electrophoresis (SDS-PAGE) was performed using a gel electrophoresis device (Mighty Small SE 250, Hoefer Scientific Instruments, San Francisco) according to the method established by the inventors. A lysed cell fraction was diluted with a sample dilution buffer [63 mM Tris (pH. 6.8), 10% glycerol, 2% SDS, 0.0013% bromophenol blue, 5% β-mercaptoethanol], and subjected to electrophoresis in an electrode buffer (15 g Tris, 72 g glycerin and 5 g SDS contained in an 1 L solution) using a 8-12% gel. After electrophoresis, the gel was transferred to a nitrocellulose membrane to transfer proteins using an electrophoresis device for transfer in a transfer buffer (25 mM Tris, 192 mM glycerin, 20% v/v methanol (pH. 8.3)] at 40 mA for 3 hours. The nitrocellulose membrane was reacted with first antibodies, reacted with horseradish peroxidase-conjugated goat anti-rabbit IgG and horseradish peroxidase-conjugated goat anti-mouse IgG as secondary antibodies for 1 hour, and visualized using an ECL chemiluminescence system (Amersham, Gaithesberg, Mass.).
# A critical cytokine having an influence on the induction of liver fibrosis, TGFβ1, is a potent fibrosis stimulation factor for HSCs. To examine the expression of a liver fibrosis-inducing factor which was increased when the human liver cell line LX-2, cultured by method D was treated with TGFβ1, changes in expression according to the treatment with GPR119 ligands (MBX-2982, GSK1292263) were assessed by the methods described in G and H, thereby observing the effect of the GPR119 ligands.
smiles,measurement,value
"CC(C)c1noc(N2CCC(COc3ccc(-c4ccc(S(C)(=O)=O)cc4)nc3)CC2)n1 [GSK1292263, 3-isopropyl-5-(4-(((6-(4-(methylsulfonyl)phenyl)pyridin-3-yl)oxy)methyl)piperidin-1-yl)-1,2,4-oxadiazole]",expression of TGFβ1-inducible TGFβ,inhibited
same,expression of TGFβ1-inducible collagen I,inhibited
